Experimental data from ChEMBL document CHEMBL4732108, “Targeting the K11.1 (hERG) channel with allosteric modulators. Synthesis and biological evaluation of three novel series of LUF7346 derivatives” (Eur J Med Chem, 2021).
The source made the active and inactive calls. The calls are words filed in the database; no cut-off is given here.

Tests used:
hERG (KCNH2) = hERG (KCNH2) (Homo sapiens, UniProt Q12809); experiment: Displacement of [3H]dofetilide from human ERG stably expressed in HEK293 cell membranes assessed as residual binding level at 10 uM measured after 60 mins by microbeta liquid scintillation counting method relative to control; design: species or system Membrane; settings: membranes of HEK293 cells stably expressing hERG, probe [3H]dofetilide, read-out: Activity
Sequence of hERG (KCNH2) (Q12809 whole entry): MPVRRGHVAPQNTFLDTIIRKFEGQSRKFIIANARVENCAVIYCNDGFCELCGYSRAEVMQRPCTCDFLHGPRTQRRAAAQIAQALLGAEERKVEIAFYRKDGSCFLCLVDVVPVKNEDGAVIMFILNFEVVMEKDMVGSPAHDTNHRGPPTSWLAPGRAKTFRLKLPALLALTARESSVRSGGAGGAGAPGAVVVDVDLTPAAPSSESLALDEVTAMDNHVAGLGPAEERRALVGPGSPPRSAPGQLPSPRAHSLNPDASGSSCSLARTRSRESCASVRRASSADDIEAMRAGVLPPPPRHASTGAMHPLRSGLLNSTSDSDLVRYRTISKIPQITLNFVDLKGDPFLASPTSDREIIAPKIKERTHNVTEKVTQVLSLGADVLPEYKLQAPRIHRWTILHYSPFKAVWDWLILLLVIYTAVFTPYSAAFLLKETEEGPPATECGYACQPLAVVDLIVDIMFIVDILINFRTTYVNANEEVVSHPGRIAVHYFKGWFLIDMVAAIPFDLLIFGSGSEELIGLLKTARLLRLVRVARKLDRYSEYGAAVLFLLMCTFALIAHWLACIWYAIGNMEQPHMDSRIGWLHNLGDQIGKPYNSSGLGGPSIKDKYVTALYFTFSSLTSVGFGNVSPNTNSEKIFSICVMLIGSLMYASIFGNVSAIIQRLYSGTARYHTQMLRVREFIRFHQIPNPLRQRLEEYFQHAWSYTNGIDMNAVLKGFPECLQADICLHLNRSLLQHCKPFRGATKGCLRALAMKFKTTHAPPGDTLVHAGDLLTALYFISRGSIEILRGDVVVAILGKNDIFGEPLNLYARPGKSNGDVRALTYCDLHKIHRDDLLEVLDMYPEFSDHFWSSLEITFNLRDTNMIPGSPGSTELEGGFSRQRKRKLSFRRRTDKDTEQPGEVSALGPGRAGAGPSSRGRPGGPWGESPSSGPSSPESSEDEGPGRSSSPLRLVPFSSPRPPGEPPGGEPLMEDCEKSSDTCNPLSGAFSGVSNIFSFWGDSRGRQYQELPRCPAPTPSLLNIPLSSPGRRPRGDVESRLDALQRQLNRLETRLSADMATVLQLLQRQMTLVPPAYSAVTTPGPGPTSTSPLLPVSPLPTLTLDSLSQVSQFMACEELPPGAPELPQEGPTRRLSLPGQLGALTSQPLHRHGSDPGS

[1] = molecular target: T1, Voltage-gated inwardly rectifying potassium channel KCNH2 (Homo sapiens, UniProt Q12809); experiment: Displacement of [3H]dofetilide from human ERG stably expressed in HEK293 cell membranes assessed as unlabelled dofetilide IC50 at 3 uM measured after 60 mins by microbeta liquid scintillation counting method (reference value: 9.1 to 11.7 nM); design: species or system Membrane
T1 sequence (Q12809 whole entry): as above

[2] = system: Stem cell-derived cardiomyocyte; experiment: Effect on human iPSC-derived cardiomyocytes assessed as prolongation of field potential duration by microarray electrode based assay; format: functional, tissue-based
[3] = system: Stem cell-derived cardiomyocyte; experiment: Effect on human iPSC-derived cardiomyocytes assessed as reduction in beating rate by measuring change in RR interval at higher concentration by microarray electrode based assay; format: functional
[4] = system: Stem cell-derived cardiomyocyte; experiment: Effect on human iPSC-derived cardiomyocytes assessed as suppression of dofetilide-induced increase in field potential duration by microarray electrode based assay; format: functional
[5] = system: Stem cell-derived cardiomyocyte; experiment: Effect on dofetilide-induced reduction in RR interval in human iPSC-derived cardiomyocytes by microarray electrode based assay; format: functional
[6] = molecular target: T1, Voltage-gated inwardly rectifying potassium channel KCNH2; experiment: Channel blockade of human ERG stably expressed in HEK293 cells assessed as decrease in current density at 5 uM with -60 mV holding potential measured after 5 mins by whole cell patch clamp method; settings: hek293, 5 min
[7] = system: Stem cell-derived cardiomyocyte; experiment: Effect on human iPSC-derived cardiomyocytes assessed as reduction in beating rate by measuring change in RR interval at 30 uM by microarray electrode based assay; format: functional, tissue-based
[8] = system: Stem cell-derived cardiomyocyte; experiment: Effect on human iPSC-derived cardiomyocytes assessed as shortening of field potential duration by microarray electrode based assay; format: functional, tissue-based
[9] = system: Stem cell-derived cardiomyocyte; experiment: Effect on human iPSC-derived cardiomyocytes assessed as suppression of dofetilide-induced increase in field potential duration at 10 to 30 uM by microarray electrode based assay; format: functional; settings: dose 10-30 µM
[10] = system: Stem cell-derived cardiomyocyte; experiment: Effect on dofetilide-induced reduction in RR interval in human iPSC-derived cardiomyocytes at 10 to 30 uM by microarray electrode based assay; format: functional; settings: dose 10-30 µM
[11] = molecular target: T1, Voltage-gated inwardly rectifying potassium channel KCNH2; experiment: Negative allosteric modulation of human ERG stably expressed in HEK293 cells assessed as increase in current density at 5 uM with -60 mV holding potential measured after 5 mins by whole cell patch clamp method; settings: hek293, 5 min
[12] = molecular target: T1, Voltage-gated inwardly rectifying potassium channel KCNH2; experiment: Displacement of [3H]dofetilide from human ERG stably expressed in HEK293 cell membranes assessed as unlabelled dofetilide IC50 at 1 uM measured after 60 mins by microbeta liquid scintillation counting method (reference value: 9.1 to 11.7 nM); design: species or system Membrane
[13] = system: Stem cell-derived cardiomyocyte; experiment: Effect on human iPSC-derived cardiomyocytes assessed as change in field potential duration by microarray electrode based assay; format: functional
[14] = molecular target: T1, Voltage-gated inwardly rectifying potassium channel KCNH2; experiment: Displacement of [3H]dofetilide from human ERG stably expressed in HEK293 cell membranes assessed as unlabelled dofetilide IC50 at 10 uM measured after 60 mins by microbeta liquid scintillation counting method (reference value: 9.1 to 11.7 nM); design: species or system Membrane

Row | SMILES | activity at 1 h, 10 µM (hERG (KCNH2)) | other results
1 | O=C(COc1ccc(C(=O)c2cc(Cl)ccc2Br)cc1)Nc1cccc(C(=O)NCC2CCC2)c1 | 38% | –
2 | CC(C)CNC(=O)c1cccc(NC(=O)COc2ccc(C(=O)c3cc(Cl)ccc3Br)cc2)c1 | 46% | –
3 | Cc1cnccc1NC(=O)COc1ccc(C(=O)c2cc(Cl)ccc2Br)cc1 | 15% | IC50 [1]: 14.1 nM
4 | N#Cc1ccc(Cl)c(NC(=O)COc2ccc(C(=O)c3cc(Cl)ccc3Br)cc2)c1 | 44% | –
5 | COc1ccc(C#N)cc1NC(=O)COc1ccc(C(=O)c2cc(Cl)ccc2Br)cc1 | 28% | –
6 | N#Cc1cc(NC(=O)COc2ccc(C(=O)c3cc(Cl)ccc3Br)cc2)ccc1F | 22.7% | –
7 | N#Cc1cccc(NC(=O)COc2ccc(C(=O)c3cc(Cl)ccc3Br)cc2)c1F | 21% | –
8 | O=C(COc1ccc(C(=O)c2cc(Cl)ccc2Br)cc1)Nc1ccc(Cl)c(C(=O)NCC2CC2)c1 | 20% | –
9 | O=C(COc1ccc(C(=O)c2cc(Cl)ccc2Br)cc1)Nc1ccnc(C(=O)NCC2CC2)c1 | 53% | –
10 | Cc1cc(NC(=O)COc2ccc(C(=O)c3cc(Cl)ccc3Br)cc2)ccn1 | 9% | Activity [2]: Active; Activity [3]: inactive; Activity [4]: inactive; Activity [5]: inactive; Activity [6]: Active
11 | O=C(COc1ccc(C(=O)c2cc(Cl)ccc2Br)cc1)Nc1cccc(C(=O)NC2CC2)c1 | 27% | –
12 | O=C(COc1ccc(C(=O)c2cc(Cl)ccc2Br)cc1)Nc1cncc(C(=O)NCC2CC2)c1 | 2% | Activity [2]: Active; Activity [3]: Active; Activity [7]: Active; Activity [6]: Active
13 | CNC(=O)c1cccc(NC(=O)COc2ccc(C(=O)c3cc(Cl)ccc3Br)cc2)c1 | 39.8% | –
14 | O=C(COc1ccc(C(=O)c2cc(Cl)ccc2Br)cc1)Nc1cc(Cl)cc(C(=O)NCC2CC2)c1 | 36% | –
15 | O=C(COc1ccc(C(=O)c2cc(Cl)ccc2Br)cc1)Nc1ccnc(Cl)c1 | 52% | –
16 | O=C(COc1ccc(C(=O)c2cc(Cl)ccc2Br)cc1)Nc1ccnc(F)c1 | 56.1% | –
17 | N#Cc1cc(NC(=O)COc2ccc(C(=O)c3cc(Cl)ccc3Br)cc2)ccc1Cl | 86% | –
18 | O=C(COc1ccc(C(=O)c2cc(Cl)ccc2Br)cc1)Nc1cccc(C(=O)NCC2CC2)c1Cl | -2% | –
19 | O=C(COc1ccc(C(=O)c2ccccc2Br)cc1)Nc1cccnc1 | 29.8% | Activity [8]: Dose-dependent effect; Activity [3]: Active; Activity [9]: Active; Activity [10]: inactive; Activity [11]: Active
20 | N#Cc1cc(Cl)cc(NC(=O)COc2ccc(C(=O)c3cc(Cl)ccc3Br)cc2)c1 | 36% | –
21 | N#Cc1cccc(NC(=O)COc2ccc(C(=O)c3cc(Cl)ccc3Br)cc2)c1 | 20% | IC50 [12]: 28.3 nM
22 | N#Cc1cncc(NC(=O)COc2ccc(C(=O)c3cc(Cl)ccc3Br)cc2)c1 | – | Activity [13]: inactive; Activity [3]: Active; Activity [4]: inactive; Activity [5]: inactive
23 | COc1ccc(NC(=O)COc2ccc(C(=O)c3cc(Cl)ccc3Br)cc2)cc1C#N | 60% | –
24 | O=C(COc1ccc(C(=O)c2cc(Cl)ccc2Br)cc1)Nc1ccncc1 | 26.1% | IC50 [14]: 43.7 nM
25 | Cc1ccc(NC(=O)COc2ccc(C(=O)c3cc(Cl)ccc3Br)cc2)cc1C#N | 87% | –
26 | COc1cc(NC(=O)COc2ccc(C(=O)c3cc(Cl)ccc3Br)cc2)ccn1 | 90% | –
27 | O=C(COc1ccc(C(=O)c2cc(Cl)ccc2Br)cc1)Nc1cccc(C(=O)NCC2CC2)c1 | 36.6% | –
28 | O=C(COc1ccc(C(=O)c2cc(Cl)ccc2Br)cc1)Nc1cc(C(=O)NCC2CC2)ccc1Cl | 89% | –
29 | O=C(COc1ccc(C(=O)c2cc(Cl)ccc2Br)cc1)Nc1cccnc1 | 28.2% | –
